Holding throughout (conditions): Compound concentration 10 µM
Experiment [1] has as its target 5-hydroxytryptamine receptor 1B (Homo sapiens) (UniProt P28222).
Description: PDSP Primary Binding target: HTR1B - Compounds are tested at 10 uM concentration, plate are incubated at room temperature in the dark for 90 minutes. Reaction are stopped by vacuum filtration onto 0.3% polyethyleneimine soaked filter mats using Filtermate harvester. Scintilation cocktail is then melted onto microwave-dried filters on a hot plate and the radio activity is counted in Microbia counter.
The target of experiment [2] is T1, Alpha-2B adrenergic receptor (Homo sapiens) (UniProt P18089).
T1 sequence (whole entry): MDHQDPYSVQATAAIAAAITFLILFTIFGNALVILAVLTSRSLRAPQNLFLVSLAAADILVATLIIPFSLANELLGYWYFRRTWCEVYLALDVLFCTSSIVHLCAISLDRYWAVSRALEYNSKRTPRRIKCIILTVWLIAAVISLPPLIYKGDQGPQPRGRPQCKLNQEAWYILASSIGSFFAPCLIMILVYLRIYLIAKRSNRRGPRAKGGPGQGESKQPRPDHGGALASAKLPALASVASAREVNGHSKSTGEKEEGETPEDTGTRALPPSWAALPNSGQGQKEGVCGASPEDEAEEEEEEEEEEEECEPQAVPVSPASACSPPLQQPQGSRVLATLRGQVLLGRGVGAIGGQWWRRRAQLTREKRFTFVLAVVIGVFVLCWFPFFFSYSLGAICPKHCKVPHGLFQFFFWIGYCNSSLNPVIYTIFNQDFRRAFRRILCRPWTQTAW
Description: PDSP Primary Binding target: ADRA2B - Compounds are tested at 10 uM concentration, plate are incubated at room temperature in the dark for 90 minutes. Reaction are stopped by vacuum filtration onto 0.3% polyethyleneimine soaked filter mats using Filtermate harvester. Scintilation cocktail is then melted onto microwave-dried filters on a hot plate and the radio activity is counted in Microbia counter.

Experiment [3] addresses T2, Muscarinic acetylcholine receptor M1 (Homo sapiens) (UniProt P11229).
T2 sequence (whole entry): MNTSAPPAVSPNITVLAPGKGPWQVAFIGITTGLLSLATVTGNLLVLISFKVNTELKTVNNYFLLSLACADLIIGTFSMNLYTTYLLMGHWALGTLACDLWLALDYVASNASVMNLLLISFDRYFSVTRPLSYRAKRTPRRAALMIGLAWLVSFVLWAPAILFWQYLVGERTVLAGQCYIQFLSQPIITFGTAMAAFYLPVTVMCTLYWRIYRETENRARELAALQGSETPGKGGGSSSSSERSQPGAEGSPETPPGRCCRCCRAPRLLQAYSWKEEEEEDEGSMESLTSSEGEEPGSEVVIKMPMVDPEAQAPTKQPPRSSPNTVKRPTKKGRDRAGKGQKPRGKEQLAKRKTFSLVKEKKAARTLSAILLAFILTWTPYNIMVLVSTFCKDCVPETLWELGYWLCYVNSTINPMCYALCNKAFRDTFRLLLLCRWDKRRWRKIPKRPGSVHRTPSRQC
Description: PDSP Primary Binding target: CHRM1 - Compounds are tested at 10 uM concentration, plate are incubated at room temperature in the dark for 90 minutes. Reaction are stopped by vacuum filtration onto 0.3% polyethyleneimine soaked filter mats using Filtermate harvester. Scintilation cocktail is then melted onto microwave-dried filters on a hot plate and the radio activity is counted in Microbia counter.

For experiment [4], the target named is D(1A) dopamine receptor (Homo sapiens) (UniProt P21728).
Description: PDSP Primary Binding target: DRD1 - Compounds are tested at 10 uM concentration, plate are incubated at room temperature in the dark for 90 minutes. Reaction are stopped by vacuum filtration onto 0.3% polyethyleneimine soaked filter mats using Filtermate harvester. Scintilation cocktail is then melted onto microwave-dried filters on a hot plate and the radio activity is counted in Microbia counter.
The target in experiment [5] is Translocator protein (Homo sapiens) (UniProt P30536).
Description: PDSP Primary Binding target: TSPO - Compounds are tested at 10 uM concentration, plate are incubated at room temperature in the dark for 90 minutes. Reaction are stopped by vacuum filtration onto 0.3% polyethyleneimine soaked filter mats using Filtermate harvester. Scintilation cocktail is then melted onto microwave-dried filters on a hot plate and the radio activity is counted in Microbia counter.
Experiment [6] has as its target Sigma intracellular receptor 2 (Homo sapiens) (UniProt Q5BJF2).
Description: PDSP Primary Binding target: TMEM97 - Compounds are tested at 10 uM concentration, plate are incubated at room temperature in the dark for 90 minutes. Reaction are stopped by vacuum filtration onto 0.3% polyethyleneimine soaked filter mats using Filtermate harvester. Scintilation cocktail is then melted onto microwave-dried filters on a hot plate and the radio activity is counted in Microbia counter.
Experiment [7] concerns the target Sigma non-opioid intracellular receptor 1 (Homo sapiens) (UniProt Q99720).
Description: PDSP Primary Binding target: SIGMAR1 - Compounds are tested at 10 uM concentration, plate are incubated at room temperature in the dark for 90 minutes. Reaction are stopped by vacuum filtration onto 0.3% polyethyleneimine soaked filter mats using Filtermate harvester. Scintilation cocktail is then melted onto microwave-dried filters on a hot plate and the radio activity is counted in Microbia counter.
The target of experiment [8] is D(1B) dopamine receptor (Homo sapiens) (UniProt P21918).
Description: PDSP Primary Binding target: DRD5 - Compounds are tested at 10 uM concentration, plate are incubated at room temperature in the dark for 90 minutes. Reaction are stopped by vacuum filtration onto 0.3% polyethyleneimine soaked filter mats using Filtermate harvester. Scintilation cocktail is then melted onto microwave-dried filters on a hot plate and the radio activity is counted in Microbia counter.
Experiment [9] deals with 5-hydroxytryptamine receptor 2A (Homo sapiens) (UniProt P28223).
Description: PDSP Primary Binding target: HTR2A - Compounds are tested at 10 uM concentration, plate are incubated at room temperature in the dark for 90 minutes. Reaction are stopped by vacuum filtration onto 0.3% polyethyleneimine soaked filter mats using Filtermate harvester. Scintilation cocktail is then melted onto microwave-dried filters on a hot plate and the radio activity is counted in Microbia counter.
The target of experiment [10] is Kappa-type opioid receptor (Homo sapiens) (UniProt P41145).
Description: PDSP Primary Binding target: OPRK1 - Compounds are tested at 10 uM concentration, plate are incubated at room temperature in the dark for 90 minutes. Reaction are stopped by vacuum filtration onto 0.3% polyethyleneimine soaked filter mats using Filtermate harvester. Scintilation cocktail is then melted onto microwave-dried filters on a hot plate and the radio activity is counted in Microbia counter.
Experiment [11] addresses Beta-1 adrenergic receptor (Homo sapiens) (UniProt P08588).
Description: PDSP Primary Binding target: ADRB1 - Compounds are tested at 10 uM concentration, plate are incubated at room temperature in the dark for 90 minutes. Reaction are stopped by vacuum filtration onto 0.3% polyethyleneimine soaked filter mats using Filtermate harvester. Scintilation cocktail is then melted onto microwave-dried filters on a hot plate and the radio activity is counted in Microbia counter.
For experiment [12], the target named is Sodium-dependent dopamine transporter (Homo sapiens) (UniProt Q01959).
Description: PDSP Primary Binding target: SLC6A3 - Compounds are tested at 10 uM concentration, plate are incubated at room temperature in the dark for 90 minutes. Reaction are stopped by vacuum filtration onto 0.3% polyethyleneimine soaked filter mats using Filtermate harvester. Scintilation cocktail is then melted onto microwave-dried filters on a hot plate and the radio activity is counted in Microbia counter.
In experiment [13] the target is 5-hydroxytryptamine receptor 2B (Homo sapiens) (UniProt P41595).
Description: PDSP Primary Binding target: HTR2B - Compounds are tested at 10 uM concentration, plate are incubated at room temperature in the dark for 90 minutes. Reaction are stopped by vacuum filtration onto 0.3% polyethyleneimine soaked filter mats using Filtermate harvester. Scintilation cocktail is then melted onto microwave-dried filters on a hot plate and the radio activity is counted in Microbia counter.
Experiment [14] concerns the target Mu-type opioid receptor (Homo sapiens) (UniProt P35372).
Description: PDSP Primary Binding target: OPRM1 - Compounds are tested at 10 uM concentration, plate are incubated at room temperature in the dark for 90 minutes. Reaction are stopped by vacuum filtration onto 0.3% polyethyleneimine soaked filter mats using Filtermate harvester. Scintilation cocktail is then melted onto microwave-dried filters on a hot plate and the radio activity is counted in Microbia counter.
The target in experiment [15] is T3, Muscarinic acetylcholine receptor M5 (Homo sapiens) (UniProt P08912).
T3 sequence (whole entry): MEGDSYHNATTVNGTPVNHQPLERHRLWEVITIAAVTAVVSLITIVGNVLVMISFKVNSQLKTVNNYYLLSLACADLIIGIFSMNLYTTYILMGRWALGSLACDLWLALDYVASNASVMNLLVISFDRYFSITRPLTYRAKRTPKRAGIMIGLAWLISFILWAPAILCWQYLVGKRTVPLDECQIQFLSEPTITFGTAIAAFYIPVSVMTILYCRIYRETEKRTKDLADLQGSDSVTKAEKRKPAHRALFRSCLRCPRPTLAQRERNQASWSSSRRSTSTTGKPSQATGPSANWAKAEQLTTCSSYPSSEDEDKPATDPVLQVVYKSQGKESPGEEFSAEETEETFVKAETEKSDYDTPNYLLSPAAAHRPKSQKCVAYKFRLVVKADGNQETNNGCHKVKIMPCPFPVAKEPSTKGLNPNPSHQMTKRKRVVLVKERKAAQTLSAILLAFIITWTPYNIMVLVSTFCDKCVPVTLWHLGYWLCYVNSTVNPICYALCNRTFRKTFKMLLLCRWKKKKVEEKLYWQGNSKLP
Description: PDSP Primary Binding target: CHRM5 - Compounds are tested at 10 uM concentration, plate are incubated at room temperature in the dark for 90 minutes. Reaction are stopped by vacuum filtration onto 0.3% polyethyleneimine soaked filter mats using Filtermate harvester. Scintilation cocktail is then melted onto microwave-dried filters on a hot plate and the radio activity is counted in Microbia counter.

Experiment [16] concerns the target T4, 5-hydroxytryptamine receptor 2C (Homo sapiens) (UniProt P28335).
T4 sequence (whole entry): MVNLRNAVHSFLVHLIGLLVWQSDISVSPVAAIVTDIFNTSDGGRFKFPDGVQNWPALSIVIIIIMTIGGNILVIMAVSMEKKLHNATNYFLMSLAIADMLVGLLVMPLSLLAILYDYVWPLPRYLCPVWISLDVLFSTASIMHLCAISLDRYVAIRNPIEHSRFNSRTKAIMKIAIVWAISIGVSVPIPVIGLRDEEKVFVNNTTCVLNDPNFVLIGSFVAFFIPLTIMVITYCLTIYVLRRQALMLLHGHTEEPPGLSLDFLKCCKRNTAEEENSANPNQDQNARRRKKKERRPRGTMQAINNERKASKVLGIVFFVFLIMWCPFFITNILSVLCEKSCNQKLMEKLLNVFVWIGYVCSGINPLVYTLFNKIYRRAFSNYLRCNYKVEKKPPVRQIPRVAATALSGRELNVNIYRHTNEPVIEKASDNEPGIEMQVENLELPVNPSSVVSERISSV
Description: PDSP Primary Binding target: HTR2C - Compounds are tested at 10 uM concentration, plate are incubated at room temperature in the dark for 90 minutes. Reaction are stopped by vacuum filtration onto 0.3% polyethyleneimine soaked filter mats using Filtermate harvester. Scintilation cocktail is then melted onto microwave-dried filters on a hot plate and the radio activity is counted in Microbia counter.

For experiment [17], the target named is Beta-2 adrenergic receptor (Homo sapiens) (UniProt P07550).
Description: PDSP Primary Binding target: ADRB2 - Compounds are tested at 10 uM concentration, plate are incubated at room temperature in the dark for 90 minutes. Reaction are stopped by vacuum filtration onto 0.3% polyethyleneimine soaked filter mats using Filtermate harvester. Scintilation cocktail is then melted onto microwave-dried filters on a hot plate and the radio activity is counted in Microbia counter.
Experiment [18] concerns the target D(2) dopamine receptor (Homo sapiens) (UniProt P14416).
Description: PDSP Primary Binding target: DRD2 - Compounds are tested at 10 uM concentration, plate are incubated at room temperature in the dark for 90 minutes. Reaction are stopped by vacuum filtration onto 0.3% polyethyleneimine soaked filter mats using Filtermate harvester. Scintilation cocktail is then melted onto microwave-dried filters on a hot plate and the radio activity is counted in Microbia counter.
For experiment [19], the target named is 5-hydroxytryptamine receptor 1D (Homo sapiens) (UniProt P28221).
Description: PDSP Primary Binding target: HTR1D - Compounds are tested at 10 uM concentration, plate are incubated at room temperature in the dark for 90 minutes. Reaction are stopped by vacuum filtration onto 0.3% polyethyleneimine soaked filter mats using Filtermate harvester. Scintilation cocktail is then melted onto microwave-dried filters on a hot plate and the radio activity is counted in Microbia counter.

This is an account of results in ChEMBL document CHEMBL5442219.

The structures appear in SMILES notation.

5-hydroxytryptamine receptor 1B (Homo sapiens), sequence (P28222 whole entry): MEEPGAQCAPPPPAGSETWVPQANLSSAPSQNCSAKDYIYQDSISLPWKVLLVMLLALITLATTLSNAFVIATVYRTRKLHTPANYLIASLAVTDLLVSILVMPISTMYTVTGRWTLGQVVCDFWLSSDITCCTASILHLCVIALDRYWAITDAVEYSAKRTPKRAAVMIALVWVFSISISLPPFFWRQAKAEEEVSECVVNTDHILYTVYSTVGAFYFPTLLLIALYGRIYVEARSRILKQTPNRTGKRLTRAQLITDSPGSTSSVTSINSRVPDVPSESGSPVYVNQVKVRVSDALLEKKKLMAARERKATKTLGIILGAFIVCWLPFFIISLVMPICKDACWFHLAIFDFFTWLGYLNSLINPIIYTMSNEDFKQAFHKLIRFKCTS
5-hydroxytryptamine receptor 2B (Homo sapiens), sequence (P41595 whole entry): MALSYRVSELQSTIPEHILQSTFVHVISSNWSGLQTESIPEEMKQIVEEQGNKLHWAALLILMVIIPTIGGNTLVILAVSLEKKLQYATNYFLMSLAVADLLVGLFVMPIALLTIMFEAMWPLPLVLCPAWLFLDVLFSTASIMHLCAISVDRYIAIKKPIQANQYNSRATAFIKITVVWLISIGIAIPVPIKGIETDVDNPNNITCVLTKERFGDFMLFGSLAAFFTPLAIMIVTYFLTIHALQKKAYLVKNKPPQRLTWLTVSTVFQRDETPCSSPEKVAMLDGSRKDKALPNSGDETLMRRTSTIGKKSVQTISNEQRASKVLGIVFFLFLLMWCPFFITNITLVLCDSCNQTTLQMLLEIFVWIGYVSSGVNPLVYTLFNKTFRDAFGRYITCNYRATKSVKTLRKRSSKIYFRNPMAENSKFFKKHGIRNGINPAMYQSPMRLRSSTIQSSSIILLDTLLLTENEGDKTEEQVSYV
D(1B) dopamine receptor (Homo sapiens), sequence (P21918 whole entry): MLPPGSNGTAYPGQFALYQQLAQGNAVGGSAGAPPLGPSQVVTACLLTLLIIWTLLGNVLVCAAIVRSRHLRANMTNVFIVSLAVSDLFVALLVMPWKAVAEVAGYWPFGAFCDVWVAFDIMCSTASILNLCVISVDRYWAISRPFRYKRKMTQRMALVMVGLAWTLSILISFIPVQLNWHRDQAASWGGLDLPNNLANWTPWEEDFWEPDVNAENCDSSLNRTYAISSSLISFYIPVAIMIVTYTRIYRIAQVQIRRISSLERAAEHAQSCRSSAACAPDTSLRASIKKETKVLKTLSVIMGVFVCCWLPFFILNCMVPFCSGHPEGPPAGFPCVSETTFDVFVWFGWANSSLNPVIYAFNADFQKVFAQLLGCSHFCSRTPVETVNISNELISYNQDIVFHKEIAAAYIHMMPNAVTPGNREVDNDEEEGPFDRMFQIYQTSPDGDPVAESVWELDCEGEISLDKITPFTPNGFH
Kappa-type opioid receptor (Homo sapiens), sequence (P41145 whole entry): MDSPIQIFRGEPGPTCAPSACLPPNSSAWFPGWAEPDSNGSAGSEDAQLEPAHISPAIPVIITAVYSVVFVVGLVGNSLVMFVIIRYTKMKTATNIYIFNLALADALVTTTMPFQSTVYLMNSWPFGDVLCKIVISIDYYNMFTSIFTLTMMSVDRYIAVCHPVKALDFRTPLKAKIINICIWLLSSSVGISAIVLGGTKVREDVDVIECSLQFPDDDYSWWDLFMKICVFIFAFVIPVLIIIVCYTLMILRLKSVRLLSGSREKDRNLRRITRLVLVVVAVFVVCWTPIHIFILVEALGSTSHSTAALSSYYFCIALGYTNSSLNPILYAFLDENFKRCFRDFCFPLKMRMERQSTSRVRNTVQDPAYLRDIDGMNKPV
D(2) dopamine receptor (Homo sapiens), sequence (P14416 whole entry): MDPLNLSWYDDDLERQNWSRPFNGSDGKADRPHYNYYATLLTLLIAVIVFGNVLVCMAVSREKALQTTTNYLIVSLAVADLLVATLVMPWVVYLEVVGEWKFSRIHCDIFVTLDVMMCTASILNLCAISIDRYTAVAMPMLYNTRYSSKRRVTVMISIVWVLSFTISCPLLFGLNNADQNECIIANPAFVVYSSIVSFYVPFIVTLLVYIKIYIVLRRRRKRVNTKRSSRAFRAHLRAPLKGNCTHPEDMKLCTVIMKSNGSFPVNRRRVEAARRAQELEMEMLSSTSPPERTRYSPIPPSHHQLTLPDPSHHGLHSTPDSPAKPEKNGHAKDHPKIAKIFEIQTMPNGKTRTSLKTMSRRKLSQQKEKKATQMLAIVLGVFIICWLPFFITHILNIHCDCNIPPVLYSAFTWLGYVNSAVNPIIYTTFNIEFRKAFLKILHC
Sodium-dependent dopamine transporter (Homo sapiens), sequence (Q01959 whole entry): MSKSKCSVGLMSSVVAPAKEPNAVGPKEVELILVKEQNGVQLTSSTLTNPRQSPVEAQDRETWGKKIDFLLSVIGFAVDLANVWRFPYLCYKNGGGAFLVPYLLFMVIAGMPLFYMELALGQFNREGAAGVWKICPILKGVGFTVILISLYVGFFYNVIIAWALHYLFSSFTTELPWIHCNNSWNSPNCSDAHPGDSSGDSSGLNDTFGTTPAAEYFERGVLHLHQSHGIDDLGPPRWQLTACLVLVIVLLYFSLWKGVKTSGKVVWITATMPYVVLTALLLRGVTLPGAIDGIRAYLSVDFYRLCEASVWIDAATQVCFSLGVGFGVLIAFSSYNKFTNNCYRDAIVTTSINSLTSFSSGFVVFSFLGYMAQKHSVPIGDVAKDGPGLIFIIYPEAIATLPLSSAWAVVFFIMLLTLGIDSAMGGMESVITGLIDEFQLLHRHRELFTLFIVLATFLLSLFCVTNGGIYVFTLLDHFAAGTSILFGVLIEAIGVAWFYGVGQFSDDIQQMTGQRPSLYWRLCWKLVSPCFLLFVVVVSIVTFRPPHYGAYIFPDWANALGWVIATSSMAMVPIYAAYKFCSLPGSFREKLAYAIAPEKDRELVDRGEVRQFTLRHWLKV
5-hydroxytryptamine receptor 2A (Homo sapiens), sequence (P28223 whole entry): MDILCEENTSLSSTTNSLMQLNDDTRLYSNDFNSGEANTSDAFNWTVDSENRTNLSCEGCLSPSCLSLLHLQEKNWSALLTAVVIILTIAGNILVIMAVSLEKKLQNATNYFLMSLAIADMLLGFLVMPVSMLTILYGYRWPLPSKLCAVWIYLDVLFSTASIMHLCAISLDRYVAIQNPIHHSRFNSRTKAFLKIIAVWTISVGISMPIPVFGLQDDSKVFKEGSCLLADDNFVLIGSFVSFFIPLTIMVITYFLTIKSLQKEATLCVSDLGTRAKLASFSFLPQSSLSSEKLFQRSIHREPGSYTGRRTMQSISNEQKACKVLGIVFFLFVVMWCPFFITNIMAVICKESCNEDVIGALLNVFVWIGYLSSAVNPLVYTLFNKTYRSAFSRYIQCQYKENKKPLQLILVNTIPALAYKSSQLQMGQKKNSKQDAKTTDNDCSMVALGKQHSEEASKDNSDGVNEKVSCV
Sigma intracellular receptor 2 (Homo sapiens), sequence (Q5BJF2 whole entry): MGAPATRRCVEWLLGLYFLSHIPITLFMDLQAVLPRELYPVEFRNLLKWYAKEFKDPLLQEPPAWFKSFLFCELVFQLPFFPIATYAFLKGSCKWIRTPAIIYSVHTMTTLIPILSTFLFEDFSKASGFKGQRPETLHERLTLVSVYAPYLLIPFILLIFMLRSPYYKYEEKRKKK
Translocator protein (Homo sapiens), sequence (P30536 whole entry): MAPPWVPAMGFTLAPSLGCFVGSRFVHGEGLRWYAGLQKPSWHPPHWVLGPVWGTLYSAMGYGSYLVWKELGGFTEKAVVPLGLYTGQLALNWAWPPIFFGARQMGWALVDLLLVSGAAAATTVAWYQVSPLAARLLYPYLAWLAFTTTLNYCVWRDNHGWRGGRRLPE
Sigma non-opioid intracellular receptor 1 (Homo sapiens), sequence (Q99720 whole entry): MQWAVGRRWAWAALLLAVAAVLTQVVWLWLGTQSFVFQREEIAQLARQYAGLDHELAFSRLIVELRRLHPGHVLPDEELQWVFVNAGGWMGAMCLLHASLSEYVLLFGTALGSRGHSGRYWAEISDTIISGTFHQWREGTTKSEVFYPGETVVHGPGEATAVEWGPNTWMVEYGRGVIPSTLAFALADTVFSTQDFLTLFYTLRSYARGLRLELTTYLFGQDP
Beta-1 adrenergic receptor (Homo sapiens), sequence (P08588 whole entry, looked up): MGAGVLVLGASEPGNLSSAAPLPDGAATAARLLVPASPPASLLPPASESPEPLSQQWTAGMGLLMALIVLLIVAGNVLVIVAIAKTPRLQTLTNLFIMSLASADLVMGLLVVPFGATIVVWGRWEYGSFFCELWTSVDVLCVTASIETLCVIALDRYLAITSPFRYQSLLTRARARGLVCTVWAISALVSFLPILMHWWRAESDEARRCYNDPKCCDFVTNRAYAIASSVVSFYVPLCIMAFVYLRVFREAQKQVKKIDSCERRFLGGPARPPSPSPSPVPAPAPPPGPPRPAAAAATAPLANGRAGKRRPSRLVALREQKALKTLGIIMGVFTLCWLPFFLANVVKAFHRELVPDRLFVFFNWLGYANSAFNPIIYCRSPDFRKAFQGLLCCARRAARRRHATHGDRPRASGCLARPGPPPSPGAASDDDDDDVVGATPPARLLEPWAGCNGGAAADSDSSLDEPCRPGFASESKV
Mu-type opioid receptor (Homo sapiens), sequence (P35372 whole entry): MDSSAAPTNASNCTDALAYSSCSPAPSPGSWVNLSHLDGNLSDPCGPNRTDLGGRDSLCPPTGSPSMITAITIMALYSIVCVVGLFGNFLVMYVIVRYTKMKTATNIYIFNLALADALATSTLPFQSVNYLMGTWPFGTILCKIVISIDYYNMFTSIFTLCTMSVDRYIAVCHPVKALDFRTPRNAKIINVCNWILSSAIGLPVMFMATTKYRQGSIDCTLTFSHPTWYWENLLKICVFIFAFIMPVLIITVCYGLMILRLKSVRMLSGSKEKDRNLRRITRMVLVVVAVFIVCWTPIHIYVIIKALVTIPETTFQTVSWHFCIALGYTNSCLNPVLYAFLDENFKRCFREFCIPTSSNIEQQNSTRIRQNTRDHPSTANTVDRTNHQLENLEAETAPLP

Turning to `Cc1nc2sccn2c(=O)c1CCN1CCC(=C(c2ccc(F)cc2)c2ccc(F)cc2)CC1`, the inhibition in [1] was 96%; in experiment [2], 84%; in experiment [3], 18.5%; in [4], 99.5%; in experiment [5], 31.2%; in experiment [6] it was 98.7%. Moreover, the inhibition in [7] was 87.3%; in [8], 74.1%; in experiment [9], 91%; in [10], 65.8%; in [11], 19%; in [12], 68.9%. Besides, the inhibition in [13] was 89.4%; in experiment [14] it was 63.5%; in experiment [15], -0.02%; in experiment [16] it was 97.8%; in experiment [17], 1.44%; in experiment [18], 95.4%.

As for `O=S1(=O)c2cccc3cccc(c23)N1CCCN1CCN(c2ccc(F)cc2)CC1`, the inhibition in experiment [1] was 31.4%; in experiment [2] it was 104%; in [3] it was 12.9%; in experiment [4] it was 59.8%; in experiment [5] it was 28.7%; in [6], 96.9%. Besides, the inhibition in [7] is 89.3%; in [8] it was -1.71%; in experiment [9], 103%; in experiment [10], 56%; in experiment [11], 8.94%; in [12], 75.8%. For the same compound, the inhibition in [13] was 93.9%; in experiment [14], 43%; in experiment [15], 15.9%; in experiment [16], 97.4%; in experiment [17] it was 21.3%; in experiment [18], 41.2%.

On to `Nc1nc(NCCc2ccc(O)cc2)nc2nc(-c3ccco3)nn12`, for which the inhibition in [1] is 27%; in experiment [2], -1.01%; in [4], -2.49%; in [19] it was 19.7%; in [5], 22.4%; in experiment [6] it was 90.6%. Further, the inhibition in [7] was 43.4%; in [8] it was 27.8%; in [9], 17.1%; in [10], -5.28%; in experiment [11], 22.3%; in experiment [12] it was 23.6%. Further, the inhibition was 84.3% in experiment [13]; 0.03% in [14]; 8.15% in experiment [16]; -3.4% in experiment [17]; 40% in [18].

Consider `Oc1ccc2c3c1O[C@H]1c4[nH]c5c(c4C[C@@]4(O)[C@@H](C2)N(CC2CC2)CC[C@]314)C[C@@]1(O)[C@H]2Cc3ccc(O)c4c3[C@@]1(CCN2CC1CC1)[C@H]5O4`, for which the inhibition in experiment [1] is 13.6%; in [2], 8.68%; in experiment [3], 4.47%; in experiment [4], 33.5%; in experiment [5] it was 21.5%; in [6] it was 30.2%. For the same compound, the inhibition is 9.49% in experiment [7]; -8.61% in [8]; 18.3% in experiment [9]; 105% in experiment [10]; 1.77% in experiment [11]; -4.44% in experiment [12]. The inhibition in [13] was 14.2%; in experiment [14], 80.6%; in experiment [15], -0.25%; in experiment [16] it was 10.5%; in experiment [17], -6.53%; in experiment [18] it was 1.13%.

As for `N=C(N)SCCc1c[nH]cn1`, the inhibition in experiment [1] is 8.52%; in [2], 17.9%; in experiment [5], 5.09%; in experiment [6] it was 13.8%; in experiment [7], 13.1%; in experiment [8] it was 3.23%. The inhibition in [9] was -6.33%; in experiment [10] it was 5.15%; in experiment [11], 3.8%; in experiment [12], -0.41%; in [13], 33%; in experiment [14], -3.13%. In addition, the inhibition is -2.06% in [16], 6.81% in experiment [17] and -5.28% in experiment [18].

What is called inhibition is the relative decrease from the control value, in per cent.
